Laboratory results reported in patent publication USRE48461E1, “Modulation of androgen receptor expression” (Ionis Pharmaceuticals, Inc., priority 2012, dated 2021).

Assays:
Assay type in all cases: cell-based, human
[1] = test system: TMPRSS2 mRNA; experiment: TMPRSS2 expression in VCaP cells; settings: RNAiMax, 48 hrs
Description: (§1) Cells were plated at 10,000 cells per well. […] After an incubation period of 48 hrs, RNA levels of full length AR, the V7 variant, PSA and TMPRSS2 were measured.
(§2) After an incubation period of 48 hrs, RNA levels of full length AR, the V7 variant, PSA and TMPRSS2 were measured. The data is presented in Tables 108 expressed as percent expression of gene levels compared to the untreated control.
(§3) Cells were plated at 15,000 cells per well and cultured in CSS media for 16 hours. […] After 4 hrs, 1 nM DHT was added. […] After an incubation period of 48 hrs, RNA levels of AR, PSA and TMPRSS2 were measured.

[2] = test system: PSA mRNA; experiment: PSA expression in LNCaP cells (complete, CSS+DHT medium); settings: for Percent inhibition of PSA expression in LNCaP cells cultured in CSS + DHT medium: CSS + DHT (1 nM) medium, 48 hrs; for Percent inhibition of PSA expression in LNCaP cells cultured in complete medium: 48 hours
Description: Cells were plated at 1,000 cells per well. […] ISIS 549148 was included as a negative control. […] After an incubation period of 48 hours, RNA levels of AR, PSA and TMPRSS2 were measured.
Cells were plated at 2,000 cells per well and cultured in phenol red-free RPMI supplemented with 5% charcoal stripped serum (Gibco) media for 16 hours. […] ISIS 549148 was included as a negative control. […] After an incubation period of 4 hrs, DHT was added to the medium to a final concentration of 1 nM as indicated. RNAs were collected 48 hrs later and levels of AR, PSA and TMPRSS2 were measured. In the absence of DHT, AR expression in LNCaP cells was 95%, PSA expression was 7% and TMPRSS2 expression was 24% compared to the untreated control.

[3] = test system: PSA mRNA; experiment: PSA expression in VCaP cells; settings: RNAiMax, 48 hrs
Description: as §1, §2, §3

[4] = test system: AR mRNA; experiment: AR RNA expression in C4-2B cells (complete, CSS+DHT medium; Example 30); settings: 48 hrs
Description: Cells were plated at 1,000 cells per well. […] ISIS 549148 was included as a negative control. […] After an incubation period of 48 hrs, RNA levels of AR, PSA and TMPRSS2 were measured.
Cells were plated at 2,000 cells per well and cultured in CSS media with 1 nM DHT. […] ISIS 549148 was included as a negative control. […] After an incubation period of 48 hrs, RNA levels of AR, PSA and TMPRSS2 were measured. In the absence of DHT, AR expression in C4-2 cells was 188%, PSA expression was 43% and TMPRSS2 expression was 27% compared to the untreated control.

GGCTACTACGCCGTCA (3-10-3 (S)-cEt gapmer, chemistry not fully specified) [ISIS 549148, reference compound]
Percent inhibition of TMPRSS2 expression ([1]; CSS + DHT medium, 1.34 nM): 0% | Percent inhibition of TMPRSS2 expression ([1]; CSS + DHT medium, 4.0 nM): 0% | Percent inhibition of TMPRSS2 expression ([1]; CSS + DHT medium, 13.4 nM): 0% | Percent inhibition of TMPRSS2 expression ([1]; CSS + DHT medium, 40 nM): 0% | Percent inhibition of TMPRSS2 expression ([1]; complete medium, 1.34 nM): 0% | Percent inhibition of TMPRSS2 expression ([1]; complete medium, 4.0 nM): 0% | Percent inhibition of TMPRSS2 expression ([1]; complete medium, 13.4 nM): 0% | Percent inhibition of TMPRSS2 expression ([1]; complete medium, 40 nM): 0% | Percent inhibition of PSA expression in LNCaP cells cultured in CSS + DHT medium ([2]; 0.04 μM): 0% | Percent inhibition of PSA expression in LNCaP cells cultured in CSS + DHT medium ([2]; 0.2 μM): 8% | Percent inhibition of PSA expression in LNCaP cells cultured in CSS + DHT medium ([2]; 1 μM): 0% | Percent inhibition of PSA expression in LNCaP cells cultured in CSS + DHT medium ([2]; 5.0 μM): 9% | Percent inhibition of PSA expression in LNCaP cells cultured in complete medium ([2]; 0.04 μM): 0% | Percent inhibition of PSA expression in LNCaP cells cultured in complete medium ([2]; 0.2 μM): 0% | Percent inhibition of PSA expression in LNCaP cells cultured in complete medium ([2]; 1 μM): 0% | Percent inhibition of PSA expression in LNCaP cells cultured in complete medium ([2]; 5.0 μM): 0% | Percent inhibition of PSA expression ([3]; CSS + DHT medium, 1.34 nM): 0% | Percent inhibition of PSA expression ([3]; CSS + DHT medium, 4.0 nM): 3% | Percent inhibition of PSA expression ([3]; CSS + DHT medium, 13.4 nM): 9% | Percent inhibition of PSA expression ([3]; CSS + DHT medium, 40 nM): 0% | Percent inhibition of PSA expression ([3]; complete medium, 1.34 nM): 2% | Percent inhibition of PSA expression ([3]; complete medium, 4.0 nM): 0% | Percent inhibition of PSA expression ([3]; complete medium, 13.4 nM): 0% | Percent inhibition of PSA expression ([3]; complete medium, 40 nM): 20% | Percent expression of AR ([4]; CSS + DHT medium, 0.04 μM): 91% | Percent expression of AR ([4]; CSS + DHT medium, 0.2 μM): 104% | Percent expression of AR ([4]; CSS + DHT medium, 1 μM): 101% | Percent expression of AR ([4]; CSS + DHT medium, 5.0 μM): 95% | Percent expression of AR ([4]; complete medium, 0.04 μM): 101% | Percent expression of AR ([4]; complete medium, 0.2 μM): 91% | Percent expression of AR ([4]; complete medium, 1 μM): 88% | Percent expression of AR ([4]; complete medium, 5.0 μM): 87%
